Measurements: patent US20040005648A1, “PYK2 related products and methods” (Sugen, Inc., priority 1994, published 2004)
Entries after “also recorded” stand apart in the source; their conditions may differ. Where two headings read alike, the source gives them in different places.

Key:
Shc = assay: Tyrosine phosphorylation of Shc in stimulated PC12 cells (anti-Shc immunoprecipitation, anti-phosphotyrosine immunoblot); type: cell-based, rat; conditions: for effect on carbachol induced tyrosine phosphorylation of Shc: antagonist
Procedure: Tyrosine phosphorylation of Shc in response to bradykinin, carbachol, PMA and other stimuli was also measured. Quiescent PC12 cells were stimulated for 5 min at 37° C. with bradykinin (1AM), carbachol (1 mM), KC1 (75 mM), PMA (1.6pM), NGF (100 ng/ml), or left unstimulated (−). The cells were also stimulated with carbachol (1 mM) or potassium chloride (75 mM) in the presence of 3 mM EGTA. Stimulations with DMPP (100 μM) or muscarine (1 mM) were preformed under the same conditions. […] The Shc proteins were immunoprecipitated with anti-Shc antibodies, the immunoprecipitates were resolved by SDS-PAGE (8%1, transferred to nitrocellulose and immunoblotted with anti-phosphotyrosine antibodies.

PYK2 [1] = assay: Tyrosine phosphorylation of PYK2 in stimulated PC12 cells (anti-PYK2 immunoprecipitation, anti-phosphotyrosine immunoblot); type: cell-based, rat
PYK2 [2] = assay: Tyrosine phosphorylation of PYK2 in transiently transfected 293 cells; type: cell-based, human; conditions: PMA 1.6 μM, calcium ionophore 6 μM
Procedure: We examined the possibility whether PYK2 can tyrosine phosphorylate the Kv1.2 channel and regulate its function. In order to test this possibility, we expressed in 293 cells the Kv1.2 protein, Kv1.2 together with PYK2, and as a control Kv1.2 with a kinase negative PYK2 mutant (PKN) or with the protein tyrosine kinase Fak. The cells were grown for 24 hours in medium containing 0.2% serum and then stimulated with PMA (1.6 μM), calcium ionophore (6 μM), or left unstimulated.
Embryonic human kidney 293 cells were transiently transfected with different combinations of mammalian expression vectors which direct the synthesis of Kv1.2-HA, PYK2, a kinase negative PYK2 (PKN) or the protein tyrosine kinase Fak. The cells were grown for 24 h in the presence of 0.2% serum and then either stimulated with PMA (1.6 μM, 10 min at 37° C.), the calcium ionophore A23187 (6 μM, 10 min at 37° C.) or left unstimulated (−).
Tyrosine phosphorylation of each protein was analysed following immunoprecipitation and immunoblotting with anti-phosphotyrosine antibodies. The expression of each protein was determined by immunoblot analysis of total cell lysates from each transfection with anti-PYK2, anti-HA or anti-Fak antibodies.

Kv1.2 channel [3] = conditions: after 20 min incubation; as previously shown (Huang et al.); cited from earlier work
Kv1.2 potassium channel = assay: Tyrosine phosphorylation of Kv1.2 potassium channel in 293 cells coexpressing PYK2; type: cell-based, human; conditions: 293 cells coexpressing Kv1.2-HA and PYK2; PMA 1.6 μM, calcium ionophore 6 μM
Kv1.2 channel [4] = assay: Kv1.2 currents in microinjected Xenopus oocytes, two microelectrode voltage-clamp; type: cell-based, Xenopus laevis; conditions: for inhibition of outward current: 8 min after addition of 100 nM PMA
Procedure: In vitro capped RNA transcripts of Kv1.2, PYK2 and PKN were synthesized from linearized plasmids DNA templates utilizing the mMESSAGE MMACHINE kit (Ambion), following the supplier's protocols. The products of the transcription reaction (cRNAs) were diluted in RNAse-free water and stored at −70° C. Expression of the RNAs was done by injection of 50nl of RNA into defolliculated stage V and VI oocytes from Xenopus laevis (Iverson et al., J. Neurosc. 10, 2903-2916, 1990). The injected oocytes were incubated for 2-3 days at 20° C. in L15 solution (1:2 dilution of Gibco's Leibovitz L15 medum in H20, with 50U/ml nystatin, 0.1 mg/ml gentamycin, 30 mM HEPES buffer, pH 7.3-7.4, filtered through a […] membrane). Electrophysiological Recording and analysis. Ionic currents were recorded with a two microelectrode voltage-clamp as described (Iverson et al., suDra). The current were low-pass filtered KHz using an 8-pole Bessel filter and stored in a 80286 microcomputer using the pclamp acquisition system (Axon Instruments). The data was analyzed with the clamp fit pro-rams of the pCIamp system (Axon Instruments). All recording were performed at room temperature ([…]). The recording chamber was continually perfused with recording solution. To avoid contamination of the oocyte by Ca+^2-activated Cl^− currents low Cl^− recording solution was used (96 mM Na+, glutamate, 2 mM K^+ glutamate, 0.5 mM CaCl2, 5 mM MgCl2, 5 mM HEPES buffer). The K^+ currents were elicited in depolarizinc, steps from −100 to +40 mv in 10 mV increments every 15 seconds.
Kv1.2 currents from oocytes microinjected with either Kv1.2 mRNA, Kv1.2 and PYK2 mRNAs, or Kv1.2 and a kinase negative mutant of PYK2 mRNAs (PKN). Currents were elicited in response to depolarizing steps from −100 to +30 mV increments from a holding potential of −110 mV. Representative traces of Kv1.2 channels before and after bath application of 100 nM PMA at the annotated time (8 and 20 minutes) in the same cell.
Suppression of Kv1.2 currents in response to PMA is blocked by a kinase negative PYK2 mutant (PKN). […]

PYK-2 = assay: Tyrosine phosphorylation of PYK-2 in NIH3T3 cell lines that overexpress PYK-2; type: cell-based, mouse; conditions: NIH3T3 cells overexpressing PYK-2 / PYK-2-HA; TPA 6 μM, 15 min at 37° C.
Procedure: Stable cell lines of NIH3T3 that overexpress PYK2 were established by contransfection of PYK2 subcloned into pLSV together with pSV2neo utilizing lipofectamine reagent (GIBCO BRL). Following transfection the cells were grown in Dulbecco's modified Eagle's medium containing 10% fetal bovine serum and 1 mg/ml G418. Transient transfections into 293 cells were performed by using the calcium phosphate technique (*).
The PYK-2 cDNA cloned in PLSV was cotransfected with pSV2neo into PC12 cells and NIH3T3 in order to establish stable cell lines. G418 resistant colonies were screened by immunoprecipitating and immunoblotting.
NIH3T3 cell lines were established that overexpress the PYK-2 and the PYK-2-HA protein. […] The level of phosphorylation is not so high.

[5] = PC12 cells, agent alone, 37° C., b373: TPA 15 min, bradykinin 1 μM 1 min, A23187 2 μM 15 min, KCl 75 mM

Compound: C[N+]1(C)CCN(c2ccccc2)CC1.[I-] [DMPP, 1,1-dimethyl-4-phenyl piperazinium iodide]
- tyrosine phosphorylation of Shc in response to the agent (Shc): induced phosphorylation of Shc

Compound: O=C(O)CN(CCOCCOCCN(CC(=O)O)CC(=O)O)CC(=O)O [EGTA, ethyleneglycol-bis (P-aminoethyl ether)-N,N,N′N′-teraacetic acid]
- effect on agonist (carbachol) induced tyrosine phosphorylation of PYK2 (PYK2 [1]; PC12 cells, elimination of extracellular calcium, EGTA 3 mM): completely blocked agonist induced tyrosine phosphorylation of PYK2

Compound: [Cl-].[K+] [KCl, potassium chloride]
- tyrosine phosphorylation of PYK2 in response to the agent (PYK2 [1]; [5]): induces rapid tyrosine phosphorylation of PYK2

Compound: CCCCCCCCCCCCCC(=O)O[C@@H]1[C@@H](C)[C@@]2(O)[C@@H](C=C(CO)C[C@]3(O)C(=O)C(C)=C[C@@H]23)[C@@H]2C(C)(C)[C@]12OC(C)=O [PMA, phorbol 12-myristate 13-acetate]
- tyrosine phosphorylation of PYK2 in response to the agent (PYK2 [2]): induced tyrosine phosphorylation
- inhibition of Kv1.2 currents (Kv1.2 channel [3]): 80-90%
- tyrosine phosphorylation of Kv1.2 (Kv1.2 potassium channel): enhanced
- inhibition of outward current (Kv1.2 channel [4]; oocytes coexpressing Kv1.2 and PYK2): 95%
- inhibition of outward current (Kv1.2 channel [4]; oocytes expressing Kv1.2 alone): 25%
- effect on Kv1.2 currents (Kv1.2 channel [4]; oocytes expressing Kv1.2): caused inhibition of Kv1.2 currents
- effect of prolonged PMA treatment (down-regulation of PKC) on the agent-stimulated tyrosine phosphorylation of PYK2 (PYK2 [1]; PC12 cells pretreated with 100 nM PMA for 12 h): completely abolished the effect of PMA
- tyrosine phosphorylation of PYK2 in response to the agent (PYK2 [1]; [5]): induced tyrosine phosphorylation of PYK2
- tyrosine phosphorylation of PYK2 in response to the agent (PYK2 [1]; PC12 cells, agent alone, 37° C., b373: TPA 15 min, bradykinin 1 μM 1 min, A23187 2 μM 15 min, KCl 75 mM, listed as TPA): undergoes tyrosine phosphorylation

Compound: CN1[C@@H]2CC[C@H]1C[C@@H](OC(=O)C(CO)c1ccccc1)C2 (stereo partly drawn) [atropine]
- effect on carbachol induced tyrosine phosphorylation of Shc (Shc): had no effect

Compound: CNc1ccc2oc(C[C@H]3O[C@@]4(CC[C@H]3C)O[C@H]([C@H](C)C(=O)c3ccc[nH]3)[C@H](C)C[C@H]4C)nc2c1C(=O)O [calcium ionophore A23187]
- tyrosine phosphorylation of PYK2 in response to the agent (PYK2 [2]): induced a weaker response
- tyrosine phosphorylation of Kv1.2 (Kv1.2 potassium channel): enhanced
- tyrosine phosphorylation of PYK2 in response to the agent (PYK2 [1]; [5]): undergoes tyrosine phosphorylation; also recorded: PYK2 is phosphorylated on tyrosine residues

Compound: C[N+](C)(C)CCOC(N)=O [carbachol]
- time of maximum tyrosine phosphorylation of Shc (Shc; transient, followed by a rapid decline): one
- time after applying the agent at which PYK2 became phosphorylated on tyrosine residues (PYK2 [1]; PC12 cells): 5 s
- tyrosine phosphorylation of PYK2 in response to the agent (PYK2 [1]; [5]): induces strong, tyrosine phosphorylation of PYK2

Compound: CNC1(C)C2CCC(C2)C1(C)C (stereo not drawn) [mecamylamine]
- effect on carbachol induced tyrosine phosphorylation of Shc (Shc): blocked the effect of carbachol

Compound: C[C@@H]1O[C@H](C[N+](C)(C)C)C[C@H]1O [muscarine]
- tyrosine phosphorylation of Shc in response to the agent (Shc): had no effect

Compound: Cholera toxin
- effect on the PYK-2 tyrosine phosphorylation response to TPA / bradykinin (PYK2 [1]): gave higher signal in combination with TPA and bradykinin
- tyrosine phosphorylation of PYK2 in response to the agent (PYK2 [1]): didn't cause phosphorylation of PYK-2 alone

Compound: PDGF
- tyrosine phosphorylation of PYK-2 in response to the agent (PYK-2): undergoes tyrosine phosphorylation

Compound: Pertusis toxin: toxin known to positively regulate G-coupled receptor signalling
- tyrosine phosphorylation of PYK2 in response to the agent (PYK2 [1]; [5]): didn't cause any response alone
- effect on the PYK-2 tyrosine phosphorylation response to TPA / bradykinin (PYK2 [1]; PC12 cells, agent in combination with TPA or bradykinin): induced the response of TPA and bradykinin

Compound: aFGF: growth factor stimulus
- tyrosine phosphorylation of PYK-2 in response to the agent (PYK-2): undergoes tyrosine phosphorylation
